{
  "source": "patent US8440423B2",
  "about": "“Bioremediation of nanomaterials” (U.S. Department of Energy, priority 2007, dated 2013)",
  "key": {"Escherichia coli W3110": {"tested_on": "Escherichia coli W3110", "test": "Growth of E. coli W3110 in minimal [3-13C]L-lactate medium with nanoparticles added (OD600)", "format": "cell-based", "experimental": "(§1) Tracer Experiments. Shewanella oneidensis MR-1 and Escherichia coli W3110 were cultured in minimal medium (described in Tang, Y. J. J.; Laidlaw, D.; Gani, K.; Keasling, J. D. Biotechnology and Bioengineering 2006, 95, (1), 176-184) and hereby incorporated by reference). The medium was supplied with 30 mM (98% [3-^13C]L-lactate) (Cambridge Isotope, USA) as the sole carbon source to support cell growth. The inoculum was prepared in LB medium, which was grown overnight. This culture was inoculated into the minimal medium with a 0.09% inoculation volume. Both S. oneidensis and E. coli were cultured in shake flasks at 30° C. (at 200 rpm in dark). The fullerene compounds (C60, C60—OH, C60—COOH and C60-NH2) were added to the medium to different final concentrations (from 1 mg/L to 80 mg/L) before the exponential phase (OD600=0.09˜0.10). The culture's optical density at a wavelength of 600 nm (OD600) was measured in a spectrophotometer (DU®640, Beckman Instruments, Palo Alto, Calif.) every 2-3 hours. The carbon source (lactate) concentrations at each time point were determined using an enzyme test kit (r-Biopharm Inc., Darmstadt, Germany).\nWe used minimal medium containing [3-^13C]L-lactate to grow both organisms and test the impact of fullerenes (concentrations range from 0˜80 mg/l) on their growth. […]"}, "[1]": {"tested_on": "Shewanella oneidensis MR-1", "test": "Growth of S. oneidensis MR-1 in minimal [3-13C]L-lactate medium with nanoparticles added (OD600)", "format": "cell-based", "experimental": "as §1\nWe used minimal medium containing [3-^13C]L-lactate to grow both organisms and test the impact of fullerenes (concentrations range from 0˜80 mg/l) on their growth. Since C60 is not soluble in water and cannot be uniformly suspended in the culture solution, we only applied concentrations less than 20 mg/L in the studies of non-derivatized C60."}, "Solubility in water": {"test": "Solubility in water", "format": "physicochemical"}, "mouse skin": {"tested_on": "mouse skin", "conditions": "repeating subchronic topical dose on mouse skin for up to 24 weeks; cited from earlier work"}, "[2]": {"tested_on": "22 collection strains including E coli, B. subtilis, etc.", "conditions": "~43 mg/L; cited from earlier work"}, "E. coli, and B. subtilis": {"tested_on": "E. coli, and B. subtilis", "conditions": "up to 5 mg/L; cited from earlier work"}},
  "data": [
    {"smiles": "c12c3c4c5c1c1c6c7c2c2c8c3c3c9c4c4c%10c5c5c1c1c6c6c%11c7c2c2c7c8c3c3c8c9c4c4c9c%10c5c5c1c1c6c6c%11c2c2c7c3c3c8c4c4c9c5c1c1c6c2c3c41", "note": "[C60, C60 fullerene]", "values": [
      {"measurement": "E. coli growth course after addition of nanoparticles", "setting": "Escherichia coli W3110; 20 mg/L and 40 mg/L, FIG. 4a", "result": "slowed after addition of nanoparticles, then resumed their normal growth rate"},
      {"measurement": "E. coli growth inhibition", "setting": "Escherichia coli W3110; concentrations up to 80 mg/L (C60 less than 20 mg/L), FIG. 3a", "result": "did not significantly inhibit"},
      {"measurement": "effect on S. oneidensis MR-1 (growth), summary statement", "setting": "[1]", "result": "mild negative effects"},
      {"measurement": "S. oneidensis growth course after addition of nanoparticles", "setting": "[1]; 20 mg/L and 40 mg/L, FIG. 4b", "result": "slowed after addition of nanoparticles, then resumed their normal growth rate"},
      {"measurement": "S. oneidensis growth inhibition", "setting": "[1]; concentrations up to 80 mg/L (C60 less than 20 mg/L), FIG. 3b", "result": "did not significantly inhibit"},
      {"measurement": "solubility in water", "setting": "Solubility in water", "result": "not soluble"},
      {"measurement": "carcinogenicity", "setting": "mouse skin", "result": "non-carcinogenic"},
      {"measurement": "Conclusions: effect on 22 collection strains", "setting": "[2]", "result": "No effect"},
      {"measurement": "Conclusions: effect on growth of prokaryotic microorganisms", "setting": "E. coli, and B. subtilis", "result": "inhibitory to"}
    ]}
  ]
}
